{
  "source": "ChEMBL document CHEMBL4364353",
  "about": "“Lysophosphatidic Acid Receptor 1 Antagonists for the Treatment of Fibrosis” (ACS Med Chem Lett, 2019)",
  "target": "Lysophosphatidic acid receptor 1 (Homo sapiens, UniProt Q92633)",
  "sequence (Q92633 whole entry)": "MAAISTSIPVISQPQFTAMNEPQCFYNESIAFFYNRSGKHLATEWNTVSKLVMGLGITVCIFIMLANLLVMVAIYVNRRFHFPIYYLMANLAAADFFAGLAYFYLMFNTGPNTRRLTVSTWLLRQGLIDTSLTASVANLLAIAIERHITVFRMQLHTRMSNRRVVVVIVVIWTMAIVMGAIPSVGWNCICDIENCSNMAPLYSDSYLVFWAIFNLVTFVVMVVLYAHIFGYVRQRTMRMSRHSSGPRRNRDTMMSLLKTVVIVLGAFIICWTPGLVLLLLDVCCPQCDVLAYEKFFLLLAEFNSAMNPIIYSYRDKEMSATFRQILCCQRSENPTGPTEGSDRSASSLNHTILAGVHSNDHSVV",
  "assay": "Antagonist activity at human LPA1 expressed in CHO cells assessed as reduction in LPA-induced calcium influx incubated for 20 mins",
  "format": "functional, cell-based",
  "note": "pIC50: −log10 of the molar value.",
  "data": [
    {"smiles": "Cc1noc(-c2ccc(O[C@H]3CCC[C@H](C(=O)O)C3)cc2)c1CNC(=O)OCc1ccc(Cl)cc1", "values": [
      {"measurement": "pIC50", "result": 6.64}
    ]}
  ]
}
